Results taken from PubChem BioAssay (NCI).
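Abbreviation: GI50, concentration required for 50% inhibition of growth. Definition used: TGI = concentration required for complete inhibition of growth.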

Key:
Assay in all cases: NCI anticancer screen, dose series, 384-well format
RXF 393 renal = tested on: RXF 393 renal
NCI-H226 lung = tested on: NCI-H226 lung
MCF7 breast = tested on: MCF7 breast
HOP-62 NSCLC = tested on: HOP-62 NSCLC
SK-OV-3 ovarian = tested on: SK-OV-3 ovarian
NCI/ADR-RES ovarian = tested on: NCI/ADR-RES ovarian
U251 glioblastoma = tested on: U251 glioblastoma
HCT-116 colon = tested on: HCT-116 colon
UACC-257 melanoma = tested on: UACC-257 melanoma
NCI-H23 lung = tested on: NCI-H23 lung
IGROV1 ovarian = tested on: IGROV1 ovarian
ACHN renal = tested on: ACHN renal
NCI-H460 NSCLC = tested on: NCI-H460 NSCLC
MALME-3M melanoma = tested on: MALME-3M melanoma
PC-3 prostate = tested on: PC-3 prostate
MDA-MB-435 melanoma = tested on: MDA-MB-435 melanoma
DU-145 prostate = tested on: DU-145 prostate
A498 renal = tested on: A498 renal
OVCAR-4 ovarian = tested on: OVCAR-4 ovarian
SNB-75 CNS = tested on: SNB-75 CNS
M14 melanoma = tested on: M14 melanoma
786-0 renal = tested on: 786-0 renal
MDA-MB-231 breast = tested on: MDA-MB-231 breast
K-562 leukemia = tested on: K-562 leukemia
TK-10 renal = tested on: TK-10 renal
T-47D breast = tested on: T-47D breast
SNB-19 CNS = tested on: SNB-19 CNS
HT29 colon = tested on: HT29 colon
HS 578T breast = tested on: HS 578T breast
EKVX NSCLC = tested on: EKVX NSCLC
BT-549 breast = tested on: BT-549 breast
SK-MEL-28 melanoma = tested on: SK-MEL-28 melanoma
SF-295 CNS = tested on: SF-295 CNS
SF-539 CNS = tested on: SF-539 CNS
KM12 colon = tested on: KM12 colon
MDA-MB-468 breast = tested on: MDA-MB-468 breast
OVCAR-8 ovarian = tested on: OVCAR-8 ovarian
UO-31 renal = tested on: UO-31 renal
COLO 205 colon = tested on: COLO 205 colon
NCI-H522 lung = tested on: NCI-H522 lung
SN12C renal = tested on: SN12C renal
RPMI-8226 leukemia = tested on: RPMI-8226 leukemia
SW-620 colon = tested on: SW-620 colon
HCC-2998 colon = tested on: HCC-2998 colon
MOLT-4 leukemia = tested on: MOLT-4 leukemia
LOX IMVI melanoma = tested on: LOX IMVI melanoma
OVCAR-5 ovarian = tested on: OVCAR-5 ovarian

Work on `CCNC(=O)c1cc2c(-c3cc(C(C)(C)O)ccc3Oc3c(C)cc(F)cc3C)cn(C)c(=O)c2[nH]1` yielded a GI50 (RXF 393 renal) of 1220 nM, a TGI (RXF 393 renal) of 3550 nM and a GI50 (NCI-H226 lung) of 1260 nM. It also gave a TGI (NCI-H226 lung) of 11500 nM, a GI50 (MCF7 breast) of 48.4 nM and a TGI (MCF7 breast) of 1820 nM. The GI50 (HOP-62 NSCLC) was 1030 nM, the TGI (HOP-62 NSCLC) was 4950 nM and the GI50 (SK-OV-3 ovarian) was 412 nM. For the same molecule, the TGI (SK-OV-3 ovarian) was 3740 nM, the GI50 (NCI/ADR-RES ovarian) was 12300 nM and the TGI (NCI/ADR-RES ovarian) was 26100 nM. For the same molecule, the GI50 (U251 glioblastoma) was 2540 nM, the TGI (U251 glioblastoma) was 10900 nM and the GI50 (HCT-116 colon) was 1370 nM. The TGI (HCT-116 colon) was 10300 nM, the GI50 (UACC-257 melanoma) was 748 nM and the TGI (UACC-257 melanoma) was 10400 nM. The GI50 (NCI-H23 lung) was 725 nM, the TGI (NCI-H23 lung) was 2810 nM and the GI50 (IGROV1 ovarian) was 508 nM. For the same molecule, the TGI (IGROV1 ovarian) was 2290 nM, the GI50 (ACHN renal) was 3230 nM and the TGI (ACHN renal) was 15100 nM. For the same molecule, the GI50 (NCI-H460 NSCLC) was 2870 nM, the TGI (NCI-H460 NSCLC) was 12400 nM and the GI50 (MALME-3M melanoma) was 1150 nM. The TGI (MALME-3M melanoma) was 3360 nM, the GI50 (PC-3 prostate) was 1410 nM and the TGI (PC-3 prostate) was 12600 nM. It also gave a GI50 (MDA-MB-435 melanoma) of 5220 nM, a TGI (MDA-MB-435 melanoma) of 19100 nM and a GI50 (DU-145 prostate) of 2520 nM. The TGI (DU-145 prostate) was 14700 nM, the GI50 (A498 renal) was 1870 nM and the TGI (A498 renal) was 13000 nM. The GI50 (OVCAR-4 ovarian) was 201 nM, the TGI (OVCAR-4 ovarian) was 870 nM and the GI50 (SNB-75 CNS) was 1500 nM. It also gave a TGI (SNB-75 CNS) of 10300 nM, a GI50 (M14 melanoma) of 1590 nM and a TGI (M14 melanoma) of 16900 nM. It also gave a GI50 ([…]-0 renal) of 1240 nM, a TGI (786-0 renal) of 12300 nM and a GI50 (MDA-MB-231 breast) of 505 nM. It also gave a TGI (MDA-MB-231 breast) of 12100 nM, a GI50 (K-562 leukemia) of 879 nM and a TGI (K-562 leukemia) of 10700 nM. It also gave a GI50 (TK-10 renal) of 366 nM, a TGI (TK-10 renal) of 2960 nM and a GI50 (T-47D breast) of 1310 nM. The TGI (T-47D breast) was 8300 nM, the GI50 (SNB-19 CNS) was 2010 nM and the TGI (SNB-19 CNS) was 13200 nM. It also gave a GI50 (HT29 colon) of 1240 nM, a TGI (HT29 colon) of 13400 nM and a GI50 (HS 578T breast) of 125 nM. It also gave a TGI (HS 578T breast) of 2020 nM, a GI50 (EKVX NSCLC) of 3230 nM and a TGI (EKVX NSCLC) of 13900 nM. It also gave a GI50 (BT-549 breast) of 298 nM, a TGI (BT-549 breast) of 1920 nM and a GI50 (SK-MEL-28 melanoma) of 2960 nM. It also gave a TGI (SK-MEL-28 melanoma) of 15900 nM, a GI50 (SF-295 CNS) of 3000 nM and a TGI (SF-295 CNS) of 11100 nM. For the same molecule, the GI50 (SF-539 CNS) was 1530 nM, the TGI (SF-539 CNS) was 10100 nM and the GI50 (KM12 colon) was 1420 nM. The TGI (KM12 colon) was 11200 nM, the GI50 (MDA-MB-468 breast) was 358 nM and the TGI (MDA-MB-468 breast) was 2080 nM. It also gave a GI50 (OVCAR-8 ovarian) of 1120 nM, a TGI (OVCAR-8 ovarian) of 2550 nM and a GI50 (UO-31 renal) of 2230 nM. The TGI (UO-31 renal) was 13000 nM, the GI50 (COLO 205 colon) was 1100 nM and the TGI (COLO 205 colon) was 2750 nM. For the same molecule, the GI50 (NCI-H522 lung) was 17.6 nM, the TGI (NCI-H522 lung) was 933 nM and the GI50 (SN12C renal) was 3230 nM. It also gave a TGI (SN12C renal) of 13600 nM, a GI50 (RPMI-8226 leukemia) of 12.5 nM and a TGI (RPMI-8226 leukemia) of 693 nM. For the same molecule, the GI50 (SW-620 colon) was 2970 nM, the TGI (SW-620 colon) was 15600 nM and the GI50 (HCC-2998 colon) was 542 nM. It also gave a TGI (HCC-2998 colon) of 2030 nM, a GI50 (MOLT-4 leukemia) of 432 nM and a TGI (MOLT-4 leukemia) of 1900 nM. The GI50 (LOX IMVI melanoma) was 507 nM, the TGI (LOX IMVI melanoma) was 1840 nM and the GI50 (OVCAR-5 ovarian) was 1030 nM. It also gave a TGI (OVCAR-5 ovarian) of 9890 nM.
